Patent US20080190575A1, “Lignocellulosic Composite Material and Method for Preparing the Same” (priority 2004, published 2008)

Experiment: Dissolvability of insecticide in solvent
Format: physicochemical
Text: It has been determined that certain polar solvents are capable of dissolving at least 10 grams of the insecticide per liter of solvent. For example, it has also been determined that water is not a sufficient polar solvent for certain insecticides, such as fipronil, because it is capable of only dissolving 2.4 milligrams per liter of water. Generally, these polar solvents that are capable of dissolving at least 10 grams of the insecticide per liter are selected from at least one of an alcohol, a ketone, and an ester. More preferably, the polar solvent is selected from the group of octyl alcohol, isopropyl alcohol, methyl alcohol, acetone, carpryl alcohol, propylene carbonate, gamma-butyrolactone, 3-pentanone, 1-methyl-2-pyrrolidinone, and combinations thereof.
In Examples 1 and 2, the lignocellulosic composite material was formed having a thickness of 0.437 inches with a density of about 39 lb/ft^3. […] The fipronil was present in an amount of about 150 PPM based on the dry weight of the lignocellulosic particles. In Example 2, 0.28 grams of fipronil were dissolved in 1.00 grams of the polar solvent to form the insecticide solution. The fipronil was present in an amount of about 30 PPM based on the dry weight of the lignocellulosic particles. The polar solvent was 1-methyl-2-pyrrolidinone (NMP). NMP is capable of dissolving about 289 grams of fipronil per liter of NMP.
In Examples 3 and 4, the lignocellulosic composite material was formed having a thickness of 0.719 inches with a density of about 40 lb/ft^3. In Example 3, 1.15 grams of fipronil were dissolved in 5 grams of the polar solvent to form the insecticide solution. The fipronil was present in an amount of about 50 PPM based on the dry weight of the lignocellulosic particles. […] The fipronil was present in an amount of about 100 PPM based on the dry weight of the lignocellulosic particles. The polar solvent in Examples 3 and 4 was 3-pentanone, which is capable of dissolving about 326 grams of fipronil per liter of 3-pentanone.

Q: Which “amount dissolved per liter of NMP” value (solvent 1-methyl-2-pyrrolidinone (NMP)) does the source give for `N#Cc1nn(-c2c(Cl)cc(C(F)(F)F)cc2Cl)c(N)c1[S+]([O-])C(F)(F)F` (stereo not drawn) [fipronil, 5-amino-1-(2,6-dichloro-4-(trifluoromethyl)phenyl)-4-((trifluoromethyl)sulfinyl)-1H-pyrazole-3-carbonitrile] here?
A: about 289 grams per liter

Q: What about the “amount dissolved per liter of 3-pentanone” value (solvent 3-pentanone) of the same molecule?
A: about 326 grams per liter

Q: What about the “amount dissolved per liter of water” value (solvent water) of the same molecule?
A: 2.4 milligrams per liter
